≈ marks a conversion by molar mass, not a printed value.
Tests used:
[1] = tested on: human mitochondrial ribosomes; assay: in-vitro translation assay, human mitochondrial (human chimeric) ribosomes; assay type: biochemical
Description: (§1) IC50 values for bacterial, human chimeric, and rabbit reticulocyte ribosomes have been determined by in-vitro translation assays as described previously (Proc. Nat. Ac. Sci USA 2012, 109(27):10984-10989).
(§2) Minimal inhibitory concentrations (MICs, […]) against clinical isolates from Institute of Medical Microbiology, Univ. Zurich, and the IC50 values for bacterial, human mitochondrial and human cytosolic ribosomes are indicated.

[2] = tested on: isolates carrying apmA; assay: MIC broth microdilution, apmA; assay type: cell-based; settings: apmA resistance gene
Description: Minimal inhibitory concentrations (MIC) have been determined by broth microdilution assays (CLSI. Methods for Dilution Antimicrobial Susceptibility Tests for Bacteria That Grow Aerobically; Approved Standard—Tenth Edition. CLSI document M07-A10. Wayne, Pa.: Clinical and Laboratory Standards Institute; 2015.). […]
(§3) Minimal inhibitory concentrations (μg/ml) against clinical isolates from Institute of Medical Microbiology, Univ. Zurich, and the IC50 values for bacterial, human mitochondrial and human cytosolic ribosomes are indicated.
(§4) The Minimal inhibitory concentrations (MICs, μg/ml) against clinical isolates from Institute of Medical Microbiology, Univ Zurich, and the IC50 values for bacterial, human mitochondrial and human cytosolic ribosomes are indicated.

[3] = tested on: AG212, Escherichia coli ATCC25922; assay: MIC reference strain AG212; assay type: cell-based; settings: Escherichia coli, ATCC25922, read-out: MIC AG212 E. coli
Description: (§5) Minimal inhibitory concentrations (MIC) have been determined by broth microdilution assays (CLSI. Methods for Dilution Antimicrobial Susceptibility Tests for Bacteria That Grow Aerobically; Approved Standard—Tenth Edition. CLSI document M07-A10. Wayne, Pa.: Clinical and Laboratory Standards Institute; 2015.).
(§6) Table 4 and 5 show the antibacterial activity of the compounds of the invention against bacterial reference strains (table 4) and against representative clinical isolates (table 5).
(§7) Legend to Tables: GEN, gentamicin; AMK, amikacin; PLZ, plazomicin; APR, apramycin; AG212, Escherichia coli ATCC25922; AG215, Klebsiella pneumonia; AG220, Pseudomonas aeruginosa ATCC27853; AG225, Acinetobacter baumannii pittii; AG290, Enterobacter cloacae; […], Mycobacterium smegmatis. MICs for AG192 have been determined in the presence of 0.5 μg/mL of ampicillin in the medium to mimic the synergistic effect of aminoglycoside and β-lactam antibiotics combination therapy in the treatment of Enterococcus infections in humans.

[4] = tested on: Engineered E. coli pH430 WT; assay: Activity, engineered E. coli pH430 WT; assay type: cell-based; settings: wild type
Description: as §5

[5] = tested on: WT clinical isolates; assay: MIC broth microdilution, WT; assay type: cell-based; settings: read-out: MIC WT, clinical isolates, IMM Univ. Zurich; wild type
Description: as §5, §2, §3, §4

[6] = tested on: clinical isolates carrying AAC(3)-IV; assay: MIC broth microdilution, AAC(3)-IV; assay type: cell-based; settings: read-out: MIC AAC(3)-IV
Description: as §5, §2, §3, §4

[7] = tested on: human cytosolic ribosomes; assay: in-vitro translation assay, human cytosolic ribosomes; assay type: biochemical
Description: as §1, §2

[8] = tested on: A baum. AG227 APH(3′)-I armA; assay: Activity against G1405-methylated 16S-rRNA, clinical isolate AG227; assay type: cell-based
Description: as §5

[9] = tested on: AG038 MRSA; assay: Antibacterial activity, clinical isolate AG038; assay type: cell-based
Description: as §5, §6

[10] = tested on: AG220, Pseudomonas aeruginosa ATCC27853; assay: MIC reference strain AG220; assay type: cell-based; settings: Pseudomonas aeruginosa, ATCC27853, read-out: MIC AG220 P. aeruginosa
Description: as §5, §6, §7

[11] = tested on: SZ380, Mycobacterium smegmatis; assay: MIC reference strain SZ380; assay type: cell-based; settings: Mycolicibacterium smegmatis, read-out: MIC SZ380 M. smegmatis
Description: as §5, §6, §7

[12] = tested on: AG173 E. coli AAC(3)-IV; assay: Antibacterial activity, clinical isolate AG173; assay type: cell-based
Description: as §5, §6

[13] = tested on: AG163 E. coli APH(3′)-I; assay: Antibacterial activity, clinical isolate AG163; assay type: cell-based
Description: as §5, §6

[14] = tested on: Enterob. AG302 AAC(3)-II AAC(6′)-I rmtC; assay: Activity against G1405-methylated 16S-rRNA, clinical isolate AG302; assay type: cell-based
Description: as §5

[15] = tested on: Engineered E. coli pH424 armA; assay: Activity against G1405-methylated 16S-rRNA, E. coli pH424 armA; assay type: cell-based
Description: as §5

[16] = tested on: AG031 P. aer. APH(3′)-II; assay: Antibacterial activity, clinical isolate AG031; assay type: cell-based; design: unit not given here
Description: as §5, §6

[17] = tested on: ATCC19977 M. abcessus; assay: MIC reference strain ATCC19977; assay type: cell-based; settings: read-out: MIC ATCC19977 M. abcessus
Description: as §5, §6

[18] = tested on: AG001 E. coli WT; assay: Antibacterial activity, clinical isolate AG001; assay type: cell-based
Description: as §5, §6

[19] = tested on: AG290, Enterobacter cloacae; assay: MIC reference strain AG290; assay type: cell-based; settings: Enterobacter cloacae, read-out: MIC AG290 E. cloacae
Description: as §5, §6, §7

[20] = tested on: AG215, Klebsiella pneumonia; assay: MIC reference strain AG215; assay type: cell-based; settings: Klebsiella pneumoniae, read-out: MIC AG215 K. pneumonia
Description: as §5, §6, §7

[21] = tested on: E. coli AG153 AAC(3)-II APH(3′)-II rmtB; assay: Activity against G1405-methylated 16S-rRNA, clinical isolate AG153; assay type: cell-based
Description: as §5

[22] = tested on: bacterial ribosomes; assay: in-vitro translation assay, bacterial ribosomes; assay type: biochemical
Description: as §1, §2

[23] = tested on: K. pneum. AG269 AAC(3)-II AAC(6′)-I rmtB; assay: Activity against G1405-methylated 16S-rRNA, clinical isolate AG269; assay type: cell-based
Description: as §5

[24] = tested on: AG225, Acinetobacter baumannii pittii; assay: MIC reference strain AG225; assay type: cell-based; settings: Acinetobacter baumannii, read-out: MIC AG225 A. baumannii
Description: as §5, §6, §7

Structure (SMILES) | IC50 [1] [µM] | MIC [2] [µg/mL] | MIC [3] [µg/mL] | Activity E. coli pH430 WT [4] | MIC [5] [µg/mL] | MIC [6] [µg/mL] | IC50 [7] [µM] | Activity A baum. AG227 APH(3′)-I armA [8] | Antibacterial activity AG038 MRSA [9] | MIC [10] [µg/mL] | MIC [11] [µg/mL] | Antibacterial activity AG173 E. coli AAC(3)-IV [12] | Activity Enterob. AG302 AAC(3)-II AAC(6′)-I rmtC [14] | Activity E. coli pH424 armA [15] | Antibacterial activity AG031 P. aer. APH(3′)-II [16] | MIC [17] [µg/mL] | Antibacterial activity AG001 E. coli WT [18] | MIC [19] [µg/mL] | MIC [20] [µg/mL] | Activity E. coli AG153 AAC(3)-II APH(3′)-II rmtB [21] | further results
CN[C@H]1C(O)C2O[C@H](O[C@@H]3C(N)C[C@@H](N)[C@@H](O)[C@H]3OCC(O)CN)C(N)C[C@@H]2O[C@@H]1O[C@H]1OC(CO)[C@@H](N)[C@H](O)C1O (some centres unmarked) [DC209] | 146 | 64 to 128 (≈ 104 to 209 µM) | 2 to 4 | 2-4 | 2 to 4 (≈ 3.26 to 6.53 µM) | 8 (≈ 13.1 µM) | 105 | 2-4 | 1-2 | 2 to 4 | 0.125 | 32 | 2 | 2 | 4 | 0.5 to 1 (≈ 0.816 to 1.63 µM) | 2 | 1 | 1 | 2-4 | Antibacterial activity AG163 E. coli APH(3′)-I [13]: 4; IC50 [22]: 0.04 µM; Activity K. pneum. AG269 AAC(3)-II AAC(6′)-I rmtB [23]: 1; MIC [24]: 4 µg/mL
CN[C@H]1C(O)C2O[C@H](O[C@@H]3C(N)C[C@@H](N)[C@@H](O)[C@H]3OCCCN)C(N)C[C@@H]2O[C@@H]1O[C@H]1OC(CO)[C@@H](N)[C@H](O)C1O (some centres unmarked) [DC213] | 327 | 64 to 128 (≈ 107 to 215 µM) | 4 to 8 | 4 | 4 (≈ 6.7 µM) | 64 (≈ 107 µM) | 210 | 4-8 | 4 | 8 | 0.25 | 128 | 4-8 | 4 | 16-32 | 1 (≈ 1.68 µM) | 16 | 4 to 8 | 2 | 32 | IC50 [22]: 0.21 µM; Activity K. pneum. AG269 AAC(3)-II AAC(6′)-I rmtB [23]: 4-8; MIC [24]: 8 µg/mL
